Reference: patent US9452185B2, “Mesenchymal stem cells and supports for tissue regeneration, repair and reconstruction” (THE TEXAS A&M UNIVERSITY SYSTEM, priority 2009, dated 2016)
Entries after “also recorded” stand apart in the source; their conditions may differ.

Tests used:
[1] = test system: hMSCs; assay: Late stage osteogenesis, Alizarin Red S (ARS) staining; format: cell-based, human; settings: for dex-induced biomineralization with simultaneous treatment: 17 days with β-GP, ascorbate and dex; for dex-induced mineralization after pre-treatment: BIO 200 and 800 nM, GW 1.0 and 10.0 μM for 8 days, then 15 days with dex; for biomineralization in the absence of dex: extended incubation
Procedure: Late stage osteogenesis and ARS staining. Mature osteogenic assays were performed in 6 well format as previously described (Gregory et al., 2004, Anal Biochem 329:77-84).
Effect of GSK3β and PPARγ inhibition on late stage osteogenesis. […] Initially, experiments were conducted to examine whether pre-treatment of hMSCs with inhibitors BIO (200 and 800 nM) and GW (1.0 and 10.0 μM) in the presence of β-glycerophosphate (β-GP) and ascorbate for 8 days followed by 15 days in the same media supplemented with dex affected mineralization of the cultures. If BIO or GW function to accelerate the cells through the immature stages of osteogenesis and partially to maturity, hMSCs exposed to these conditions would be expected to respond more rapidly to the steroid-dependent mature osteoblast transition. After differentiation, calcium content was visualized by Alizarin Red S (ARS) staining and the dye was extracted and quantified. At the doses tested, and in a dose-dependent manner, BIO and GW enhanced dex-induced differentiation into biomineralizing osteoblasts (FIG. 21).
The next experiments were performed to examine whether withdrawal of the Wnt stimulus caused by BIO and GW was necessary for the hMSCs to progress to a dex-dependent biomineralizing phenotype. Human MSCs were pre-cultured with BIO and GW in the presence of f3-GP, ascorbate and dex for 17 days. […] Clotted human plasma is a biocompatible and osteoinductive vector for administration of hMSCs

[2] = test system: hMSCs; assay: hMSC yield, cell cycle analysis and cleaved caspase-3 immunoblot; format: cell-based, human; settings: for hMSC yield: BIO at concentrations greater than 400 nM, GW at tested doses; for cleaved caspase-3 (Asp175) immunoblot: whole cell extracts of treated hMSCs
Procedure: Cell cycle. Profiles were generated by fluorescence activated cell sorting and analyzed with software. Protein extraction, gel electrophoresis and western blotting. Nuclear extracts were performed by Triton extraction and differential centrifugation as previously described (Gregory et al., 2003, J Biol Chem 278:2806728078). Proteins were electrophoresed and blotted onto nitrocellulose using an electrophoresis system.

[3] = test system: hMSCs; assay: Microarray of cultured hMSCs after 8 days in osteogenic media (in vitro); format: cell-based, human; settings: for transcript transducin-like enhancer of split-1 / transcripts Klf-6, caldesmon-1, gamma-aminobutyric acid B receptor-2, synaptotagmin like-2 / transcripts fibroblast growth factor-7, high mobility group AT-hook 2, Cdk5 and Abl enzyme substrate-1, amyloid beta precursor protein-binding family B2 / transcripts protocadherin-7, PR domain containing-1, gremlin-1, collectin subfamily member-12, stanniocalcin-2: 8 days, 200/800 nM BIO, 1.0/10 μM GW; for collagens and ECM proteins found in bone tissue (transcripts): vs vehicle control
Procedure: Array analysis. Transcriptome arrays were performed using Affimetrix apparatus and HG-U133 Plus 2.0 chips. Cytokine arrays on conditioned media were performed using a human cytokine array and analyzed using a digital imager. Effects of GSK3β and PPARγ inhibition on the transcriptome of hMSCs. […] After 8 days of culture, RNA microarrays were performed on the hMSCs.

[4] = test system: calvarial defects; assay: Calvarial defect repair, 50 days (x-ray radio-opacity); format: in vivo, nude mice; settings: for repair of cranial lesions (radio-opacity ratio lesioned/contralateral): day 50, 1×10^6 pretreated hMSCs in plasma, further doses day 14, 28, 42
Procedure: Calvarial lesions. MSCs were cultured in the presence of osteogenic base media containing the appropriate inhibitor or vehicle. After 8 days, they were suspended in human plasma and administered to nude mice that had received a circular lesion in the cranium. Subsequent doses of cells were administered by direct injection in plasma/thromboplastin mix.
X-ray imaging and quantification. Cranial bones were imaged by x-ray under anaesthesia. Digital images were be captured on a digital plate and processed on a phosphorimager reader and processed by volume analysis software.
Effects of GSKβ and PPARγ inhibition on repair of an induced cranial defect in mice. Given that BIO and GW accelerated osteogenic differentiation by human MSCs in vitro, experiments were conducted to test whether the treated hMSCs could repair a critical bone defect in vivo. Human MSCs were cultured in the presence of osteogenic medium lacking dex, but containing BIO (200 and 800 nM) or GW (1.0 and 10.0 μM). Calvarial lesions were generated in nude mice and 1×10^6 hMSCs, mixed with human plasma were applied followed by thromboplastin to initiate gelling. The scalp was sutured and the animals were allowed to heal. Initially, short-duration experiments were performed to monitor distribution of the hMSCs, and to ensure the cells had survived the implantation process. GFP-labeled hMSCs were administered and mice were sacrificed after 24 h. Upon histological analysis, a substantial number of GFP-labeled, healthy hMSCs had formed a thick layer over the injury and adjacent bone tissue (FIG. 24A, 24B). The hMSCs could be readily detected with an antibody for membrane localized human β-2 microglobulin (FIG. 24C, 24D). Robust antibody-detection of unmanipulated hMSCs, rather than lentiviral labeling was favored in long term experiments because very low passage hMSCs could be utilized, rather than genetically tagged preparations that had undergone a number of passages. Long term experiments were performed for 50 days with further doses of hMSCs administered at day 14, 28 and 42 by direct injection of a plasma:hMSC mixture under the scalp (FIG. 25A). At day 50, the crania were explanted and x-ray images of the calvarial lesions were taken. The digitized images were then analysed densitometrically to quantify the degree of bone accrual (FIG. 25B). The lesioned side was compared with the contralateral side and data were expressed as the ratio of radio-opacity on the lesioned side to the contralateral side. […] When the sections were stained with anti-β-2 microglobulin, isolated clusters of hMSCs from only control and GW groups were detected (FIGS. 27C and 27D).

[5] = test system: β-catenin, GSK3β, PPARγ; assay: Intracellular distribution of β-catenin, GSK3β and PPARγ (immunoblot, fluorescence microscopy); format: cell-based, human; settings: for GSK3β in the cytoplasm / nuclear β-catenin: MSCs under osteogenic conditions
Procedure: Protein extraction, gel electrophoresis and western blotting. Nuclear extracts were performed by Triton extraction and differential centrifugation as previously described (Gregory et al., 2003, J Biol Chem 278:2806728078). Proteins were electrophoresed and blotted onto nitrocellulose using an electrophoresis system. Histochemistry and immunocytochemistry. For β-catenin localization studies, hMSCs were stained with a cy-3 conjugated anti-β-catenin antibody and nuclei were counterstained with pico-green dye. Specimens were processed as paraffin blocks and 8 longitudinal sections were prepared, deparaffinized and rehydrated, then stained with hematoxylin and eosin. For immunocytochemistry, sections were probed with an anti-human β-2-microglobulin antibody. An upright fluorescent microscope fitted with a high performance camera (and image analysis software was employed for imaging.

[6] = test system: Dkk-1; assay: Dkk-1 secretion by ELISA; format: cell-based, human; settings: osteogenic medium lacking dex, 8 days
Procedure: (§1) ELISAs. ELISA for CXCL6, Dkk-1, GROa, GRO13, and OPG were carried out by using nonbiotinylated polyclonal capture antibodies and biotinylated detection antibodies that were commercially acquired on coated 96-well plates The biotinylated […] antibodies were detected by using horseradish peroxidase-conjugated streptavidin and TMB substrate. ELISA for IL-lb were performed by using commercially acquired kits. In order to characterize the influence of 7AIPM on osteogenic differentiation, hMSC's from two donors were cultured as described elsewhere herein with the addition of varying concentrations of the compound or vehicle to the media. Samples of the media were collected daily for analysis. These samples were analyzed for the presence of OPG and Dkk-1 using ELISA. Alkaline phosphatase activity of the monolayers and cell numbers were measured using a spectrophotometer.

[7] = test system: osteoprotegerin (OPG); assay: OPG secretion by ELISA; format: cell-based, human; settings: osteogenic medium lacking dex, 8 days
Procedure: as §1

| Structure (SMILES) | dex-induced biomineralization with simultaneous treatment [1] | dex-induced mineralization after pre-treatment [1] | biomineralization in the absence of dex [1] | hMSC yield [2] | cleaved caspase-3 (Asp175) immunoblot [2] | transcript transducin-like enhancer of split-1 [3] | transcripts Klf-6, caldesmon-1, gamma-aminobutyric acid B receptor-2, synaptotagmin like-2 [3] | transcripts fibroblast growth factor-7, high mobility group AT-hook 2, Cdk5 and Abl enzyme substrate-1, amyloid beta precursor protein-binding family B2 [3] | transcripts protocadherin-7, PR domain containing-1, gremlin-1, collectin subfamily member-12, stanniocalcin-2 [3] | collagens and ECM proteins found in bone tissue (transcripts) [3] | nuclear levels of PPARγ [5] | GSK3β in the cytoplasm [5] | nuclear β-catenin [5] | Dkk-1 secretion [6] | other results |
| --- | --- | --- | --- | --- | --- | --- | --- | --- | --- | --- | --- | --- | --- | --- | --- |
| O=C1Nc2cc(Br)ccc2/C1=C1/Nc2ccccc2/C1=N\O [BIO, bromo-indirubin-3′-mono-oxime] | enhanced dex-induced biomineralization | enhanced | did not induce biomineralization | substantial reduction | no evidence of caspase 3 processing | down-regulated | significantly up-regulated | no change | significantly up-regulated | up-regulated | reduced | depletion | increased levels | reduced | cell cycle effect ([2]; 800 nM BIO, 8 days): inhibit mitosis; repair of cranial lesions (radio-opacity ratio lesioned/contralateral) [4]: no significant sign of bone repair; secretion of OPG [7]: rose in a dose dependent manner |
| O=C(Nc1ccccc1)c1cc([N+](=O)[O-])ccc1Cl [GW9662, 2-chloro-5-nitro-N-phenyl-benzamide] | enhanced dex-induced biomineralization | enhanced | did not induce biomineralization | without reduction in cellular yield | no evidence of caspase 3 processing | down-regulated | significantly up-regulated | significantly up-regulated | no change | up-regulated | reduced | depletion | increased levels | reduced | inflammatory mediator genes (IL1, IL8, CXCL chemokines) ([3]; vs control): profoundly down-regulated; improvement in healing compared with controls ([4]; MSCs treated with GW9662 applied to calvaria bone defect): 2-3 fold; lesion healing ([4]; after 50 days of repeated cell administration): about 60%; repair of cranial lesions (radio-opacity ratio lesioned/contralateral) ([4]; listed as GW): significantly improved; also recorded: profoundly improved healing; dose of maximal stimulation of OPG secretion [7]: 0.5 µM |
